Test results as given in patent US7914793B2, “Method for producing an antigenic substance and antibody” (priority 1997, dated 2011).

What was measured:
[1] = intravenous injection of Yoshixol in control rabbit, observation for abnormal signs; assay type: in vivo; conditions: Japanese white rabbit, 10 μl/Kg of 2 M Yoshixol with ethanol i.v. for 3 min, immediately after the injection through one month
Protocol: In addition, rabbit serum as the control which was shown in this example was produced by the following. In a Japanese white rabbit which was born from a parent as same as a rabbit which was used in the above example, 10 μl/Kg of 2 M Yoshixol with ethanol was injected intravenously for 3 min via a ear vein. Solution of Yoshixol was mixed with culture medium of 5 ml. The medium was filtered through miliporefilter of cellulose acetate (pore size, 0.45 μm). […] A rabbit was sacrificed under Nembutal anesthesia one month after the injection. Blood was removed.

MRSA = test: CFU of MRSA in broth after Yoshixol; assay type: cell-based, methicilin resistant Staphylococcus aureus
Text: (§1) This procedure was repeated twice.

Candida albicans = test: CFU of Candida albicans in broth after Yoshixol; assay type: cell-based; conditions: for CFU: 2 M Yoshixol in ethanol, 10 ul/ml broth
Text: as §1

Pseudomonas aureginosa = test: CFU of Pseudomonas aureginosa after Yoshixol; assay type: cell-based; conditions: for CFU: 2 M Yoshixol in ethanol, 10 ul/ml broth, 10^8, 37° C.
Text: as §1

[2] = test system: Mycobacterium Rapid Grower; test: CFU of Mycobacterium Rapid Grower after Yoshixol; assay type: cell-based; conditions: for CFU: 2 M Yoshixol in ethanol, 10 ul/ml broth, 3.3×10^5, 37° C.
Text: as §1

C=C1CC(C)(C)C=CC1=O [Yoshixol, 4,4-dimethyl-6-methylene-2-cyclohexen-1-one]
abnormal signs after injection [1]: Any abnormal sign did not find | CFU (MRSA; 2 M Yoshixol in ethanol, 10 ul/ml broth, 7.6×10^8, 37 °, 24 hours after the incubation): zero | colony growth on heart infusion agar after re-plating 0.1 ml (MRSA; incubated for 48 hours): no colony growth | CFU (Candida albicans; 10^8, 3 hours after the incubation): zero | CFU (Candida albicans; 10^8, one hour after the incubation): zero | colony growth on heart infusion agar after re-plating 0.1 ml (Candida albicans; incubated for 48 hours): no colony growth | CFU (Pseudomonas aureginosa; 3 hours after the incubation): zero | CFU (Pseudomonas aureginosa; one hour after the incubation): zero | colony growth on heart infusion agar after re-plating 0.1 ml (Pseudomonas aureginosa; incubated at 37° C. for 48 hours): no colony growth | CFU ([2]; 3 hours after the incubation): zero | CFU ([2]; one hour after the incubation): zero | colony growth on heart infusion agar after re-plating 0.1 ml ([2]; incubated at 37° C. for 72 hours): no colony growth
